Experiments:
[1] = biological target: T1, human L-Selectin-IgG-chimera (Homo sapiens, UniProt P14151); test: Sialyl Lewis X Tyrosine Sulfate Assay (sLex TSA), L-selectin; conditions: inhibition of binding of sLex-tyrosine sulfate polyacrylamide ligand complex to selectin chimera
T1 construct: IgG (chimera partner)
Method: (§1) Compounds of the present invention are assayed on a molecular level for their ability to inhibit the binding of P-, L-, or E-selectin chimeric molecules to sLe^x and tyrosinesulfate residues linked to a polymeric matrix as a PSGL-1 substitute. Selected IC50-values are determined.
(§2) Microtiter plates are coated overnight in carbonate buffer pH9.6 with goat anti human Fc mAB (10 μg/ml). After washing in assay buffer (25 mM 4-(2-hydroxyethyl)-1-piperazineethanesulfonic acid (HEPES), 150 mM NaCl, 1 mM CaCl2 pH7.4) and blocking (3% bovine serum albumin (BSA) in assay buffer) plates are incubated for 2 h at 37° C. with human P-Selectin-IgG-chimera (0.61 nM respectively 150 ng/mL) or human L-Selectin-IgG-chimera (0.61 nM respectively 89 ng/mL) or human E-Selectin-IgG-chimera (0.61 nM respectively 131 ng/mL). 5 μl of sLe^x-tyrosine sulfate polyacrylamide (1 mg/ml) carrying 15% sLe^x, 10% Tyrosine-sulfate and 5% biotin is complexed with 20 μl Streptavidin-Peroxidase solution (1 mg/ml) and 25 μl assay buffer without CaCl2. For use in the assay, the ligand complex is diluted 1:10000 in assay buffer and further diluted 1:1 with varying amounts of compounds in assay buffer incl. 2% DMSO. This mixture is added to the wells precoated with E- or P-selectin. After incubation for 2 h at 37° C., wells are washed for six times with in assay buffer incl. 0.005% Polyoxyethylenesorbitan monolaurate (TWEEN 20), developed for 10-15 min with 20 μl 3,3′,5,5′-tetramethylbenzidine (TMB)/H2O2 substrate solution and stopped with 20 μl 1M H2SO4. Bound sLe^x-Tyrosine sulfate ligand complex is determined by measuring optical density at 450 nm vs. 620 nm in a Fusion alpha-FP reader (sold from Packard Bioscience, Dreieich, Germany).

[2] = biological target: T2, human P-Selectin-IgG-chimera (Homo sapiens, UniProt P16109); test: Flow chamber assay, cell adhesion and rolling under flow conditions, P-selectin; type: cell-based; conditions: 125 μM compound, HL-60 cells, flow shear 1 dyne/cm^2, dish coated 10 μg/ml P-selectin-IgG chimera
T2 sequence (P16109 with tags, fused parts or gaps limits assumed): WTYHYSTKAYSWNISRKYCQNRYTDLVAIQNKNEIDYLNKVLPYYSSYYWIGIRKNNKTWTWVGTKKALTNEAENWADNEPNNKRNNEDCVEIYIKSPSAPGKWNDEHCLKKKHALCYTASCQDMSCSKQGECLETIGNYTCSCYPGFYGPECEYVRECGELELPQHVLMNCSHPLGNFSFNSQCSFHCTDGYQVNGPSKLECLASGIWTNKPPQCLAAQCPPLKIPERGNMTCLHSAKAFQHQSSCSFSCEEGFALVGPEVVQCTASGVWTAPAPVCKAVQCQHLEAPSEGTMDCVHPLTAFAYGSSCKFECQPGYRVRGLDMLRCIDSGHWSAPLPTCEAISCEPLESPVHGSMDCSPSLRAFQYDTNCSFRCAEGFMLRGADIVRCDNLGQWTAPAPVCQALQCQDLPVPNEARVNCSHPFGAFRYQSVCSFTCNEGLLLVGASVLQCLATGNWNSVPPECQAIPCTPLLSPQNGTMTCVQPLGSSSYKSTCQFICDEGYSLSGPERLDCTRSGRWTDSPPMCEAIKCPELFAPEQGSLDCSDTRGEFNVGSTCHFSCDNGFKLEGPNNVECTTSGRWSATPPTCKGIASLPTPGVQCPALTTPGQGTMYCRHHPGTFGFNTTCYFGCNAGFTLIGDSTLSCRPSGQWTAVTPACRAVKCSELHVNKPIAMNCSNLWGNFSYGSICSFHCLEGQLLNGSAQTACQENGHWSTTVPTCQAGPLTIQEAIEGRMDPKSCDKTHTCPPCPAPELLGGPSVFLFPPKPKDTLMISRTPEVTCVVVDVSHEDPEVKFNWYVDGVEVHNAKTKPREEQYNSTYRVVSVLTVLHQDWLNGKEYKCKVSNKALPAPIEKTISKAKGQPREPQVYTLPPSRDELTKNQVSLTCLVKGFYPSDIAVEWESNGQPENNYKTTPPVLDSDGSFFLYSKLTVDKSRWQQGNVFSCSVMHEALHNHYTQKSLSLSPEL
Method: (§3) Flow Chamber Assay/Cell Adhesion and Rolling Under Flow Conditions
(§4) To assess the capability of compounds to inhibit cell binding under dynamic conditions resembling the flow in a blood vessel, flow chamber assays addressing/testing binding of HL-60 cells/various cell lines to P-selectin, L-selectin and E-selectin chimeric molecules are performed.
(§5) Cell attachment under flow conditions are determined using a parallel flow chamber system. A 35 mm polystyrene culture dish is coated for 1 hour at room temperature with coating buffer (50 mM tris-(hydroxymethyl)aminomethane buffer (Tris), 150 mM NaCl, 2 mM CaCl2; pH 7.4) containing human E- or P-selectin-IgG chimera at concentrations of 2.5 μg/ml or 10 μg/ml, respectively. After removal of the coating solution non specific binding sites are blocked for an additional hour with 1% BSA in coating buffer at room temperature. After washing with assay buffer (“Roswell Park Memorial Institute 1640” (RPMI 1640)+10 mM HEPES) the dish is fitted into a parallel plate laminar flow chamber (sold from Glycotech, Rockville, Md.) and mounted on an inverted phase-contrast microscope (sold from Olympus, Hamburg, Germany) equipped with a CCD camera (JVC) that is connected to a PC. Employing a peristaltic pump (sold from Ismatec, Wertheim-Mondfeld, Germany) the re-circulating system is equilibrated with assay buffer containing 125 μM compound or vehicle control (DMSO). Cells (1 million/ml) are added to the chamber and allowed to distribute for 2 minutes at a high flow rate. The flow rate is then decreased resulting in a calculated flow shear of 1 dyne/cm^2. Video sequences of 10 low power fields are digitally recorded after 5 minutes continuous flow. The percentage of inhibition is calculated from the mean number of cells per field that attached to the coated dish surface in the presence versus absence of compound […].
(§6) Data from Flow Chamber Assay for E- and P-Selectin

[3] = biological target: T3, human E-Selectin-IgG-chimera (Homo sapiens, UniProt P16581); test: Flow chamber assay, cell adhesion and rolling under flow conditions, E-selectin; type: cell-based; conditions: 125 μM compound, HL-60 cells, flow shear 1 dyne/cm^2, dish coated 2.5 μg/ml E-selectin-IgG chimera
T3 sequence (P16581 with tags, fused parts or gaps limits assumed): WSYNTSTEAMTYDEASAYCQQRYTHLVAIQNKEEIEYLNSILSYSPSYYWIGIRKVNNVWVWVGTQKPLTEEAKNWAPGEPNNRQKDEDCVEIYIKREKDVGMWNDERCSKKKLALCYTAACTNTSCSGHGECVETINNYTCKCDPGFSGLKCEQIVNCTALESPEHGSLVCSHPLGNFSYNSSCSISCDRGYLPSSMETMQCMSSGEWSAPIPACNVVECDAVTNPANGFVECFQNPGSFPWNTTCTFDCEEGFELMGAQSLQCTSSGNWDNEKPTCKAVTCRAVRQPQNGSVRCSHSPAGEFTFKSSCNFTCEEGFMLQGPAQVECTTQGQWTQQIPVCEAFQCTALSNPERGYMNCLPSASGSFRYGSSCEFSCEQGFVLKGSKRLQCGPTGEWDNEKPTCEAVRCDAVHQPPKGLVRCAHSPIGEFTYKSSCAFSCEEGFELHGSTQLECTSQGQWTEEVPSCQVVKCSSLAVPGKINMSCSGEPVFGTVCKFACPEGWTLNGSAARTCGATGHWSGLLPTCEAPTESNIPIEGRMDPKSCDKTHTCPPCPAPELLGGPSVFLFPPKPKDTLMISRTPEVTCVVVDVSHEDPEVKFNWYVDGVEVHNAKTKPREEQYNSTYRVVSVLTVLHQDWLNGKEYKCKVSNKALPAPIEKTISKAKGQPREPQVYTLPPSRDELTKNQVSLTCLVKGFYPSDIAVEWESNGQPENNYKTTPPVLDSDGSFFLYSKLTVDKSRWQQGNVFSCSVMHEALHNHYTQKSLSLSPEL
Method: as §3, §4, §5, §6

[4] = biological target: T3, human E-Selectin-IgG-chimera; test: Sialyl Lewis X Tyrosine Sulfate Assay (sLex TSA), E-selectin; set-up: IgG (chimera partner); conditions: inhibition of binding of sLex-tyrosine sulfate polyacrylamide ligand complex to selectin chimera
Method: as §1, §2

[5] = biological target: T2, human P-Selectin-IgG-chimera; test: Sialyl Lewis X Tyrosine Sulfate Assay (sLex TSA), P-selectin; set-up: IgG (chimera partner); conditions: inhibition of binding of sLex-tyrosine sulfate polyacrylamide ligand complex to selectin chimera
Method: as §1, §2

T1 sequence (P14151 with tags, fused parts or gaps limits assumed): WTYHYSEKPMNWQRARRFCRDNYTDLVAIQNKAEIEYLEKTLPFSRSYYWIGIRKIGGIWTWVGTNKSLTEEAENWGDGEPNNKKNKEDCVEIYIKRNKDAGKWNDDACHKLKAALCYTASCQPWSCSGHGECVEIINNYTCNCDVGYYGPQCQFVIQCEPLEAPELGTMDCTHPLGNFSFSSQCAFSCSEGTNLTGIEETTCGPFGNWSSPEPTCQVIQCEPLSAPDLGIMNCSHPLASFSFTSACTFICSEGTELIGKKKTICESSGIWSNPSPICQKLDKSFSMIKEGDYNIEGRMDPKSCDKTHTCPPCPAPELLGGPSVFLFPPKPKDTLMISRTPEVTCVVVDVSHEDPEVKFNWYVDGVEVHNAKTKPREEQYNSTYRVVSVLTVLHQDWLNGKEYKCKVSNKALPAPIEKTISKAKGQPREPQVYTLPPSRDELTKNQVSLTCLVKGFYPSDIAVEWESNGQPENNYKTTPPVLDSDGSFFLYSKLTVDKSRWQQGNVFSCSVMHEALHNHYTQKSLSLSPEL

Row | SMILES | IC50 [1] | P-Selectin [Ratio]: normalized ratio of %-inhibition of compound divided by %-inhibition of bimosiamose [2] | E-Selectin [Ratio]: normalized ratio of %-inhibition of compound divided by %-inhibition of bimosiamose [3] | IC50 [4] | IC50 [5]
1 | O=C(O)Cc1cccc(-c2cc(CCCCCCc3ccc(O[C@H]4O[C@H](CO)[C@@H](O)[C@H](O)[C@@H]4O)c(-c4cccc(CC(=O)O)c4)c3)ccc2O[C@H]2O[C@H](CO)[C@@H](O)[C@H](O)[C@@H]2O)c1 [Bimosiamose, bimosiamose, reference compound] | > 500 µM | – | – | – | –
2 | O=C(Cc1c(O)cc(O)cc1O)Nc1cccc(C(=O)O)c1 [Compound 18, 3-[2-(2,4,6-Trihydroxy-phenyl)-acetylamino]-benzoic acid] | 35.1 µM | 1.07 Ratio | 0.80 Ratio | 41.2 µM | 37.1 µM
3 | Cc1oc(-c2ccc(NC(=O)Cc3c(O)cc(O)cc3O)cc2)cc1C(=O)O [Compound 19, 2-Methyl-5-{4-[2-(2,4,6-trihydroxy-phenyl)-acetylamino]-phenyl}-furan-3-carboxylic acid] | 22.1 µM | 1.27 Ratio | 0.75 Ratio | 12.4 µM | 20.7 µM
4 | O=C(O)Cc1ccc(-c2ccccc2NC(=O)Cc2c(O)cc(O)cc2O)s1 [Compound 25, (5-{2-[2-(2,4,6-Trihydroxy-phenyl)-acetylamino]-phenyl}-thiophen-2-yl)-acetic acid] | 95.9 µM | 1.65 Ratio | 0.94 Ratio | 105 µM | 87.9 µM
5 | O=C(Nc1ccccc1-c1ccc(C(=O)O)s1)c1cccc(-c2c(O)cc(O)cc2O)c1 [Compound 26, 5-{2-[(2′,4′,6′-trihydroxy-biphenyl-3-carbonyl)-amino]-phenyl}-thiophene-2-carboxylic acid] | 28.2 µM | 0.77 Ratio | 1.11 Ratio | 33.3 µM | 27.8 µM
6 | O=C(Nc1cccc(C(F)(F)F)c1)c1cccc(-c2c(O)cc(O)cc2O)c1 [Compound 66, 2′,4′,6′-Trihydroxy-biphenyl-3-carboxylic acid (3-trifluoromethyl-phenyl)-amide] | – | 1.19 Ratio | 1.47 Ratio | – | –
7 | O=C(O)c1cccc(NC(=O)c2cccc(-c3c(O)cc(O)cc3O)c2)c1 [Compound 67, 3-[(2′,4′,6′-Trihydroxy-biphenyl-3-carbonyl)-amino]-benzoic acid] | 25.2 µM | 0.95 Ratio | 0.79 Ratio | 27.3 µM | 23.3 µM

The next lines start with the values.

Row | IC50 [1] | P-Selectin [Ratio]: normalized ratio of %-inhibition of compound divided by %-inhibition of bimosiamose [2] | E-Selectin [Ratio]: normalized ratio of %-inhibition of compound divided by %-inhibition of bimosiamose [3] | IC50 [4] | IC50 [5] | SMILES
8 | 6.1 µM | 0.99 Ratio | 1.05 Ratio | 7.8 µM | 5.2 µM | Cc1oc(-c2ccc(NC(=O)c3cccc(-c4c(O)cc(O)cc4O)c3)cc2)cc1C(=O)O [Compound 60, 2-Methyl-5-{4-[(2′,4′,6′-trihydroxy-biphenyl-3-carbonyl)-amino]-phenyl}-furan-3-carboxylic acid]
9 | 17.4 µM | 0.87 Ratio | 1.23 Ratio | 21.9 µM | 17.4 µM | O=C(O)Cc1ccc(-c2ccccc2NC(=O)c2cccc(-c3c(O)cc(O)cc3O)c2)s1 [Compound 63, (5-{2-[(2′,4′,6′-Trihydroxy-biphenyl-3-carbonyl)-amino]-phenyl}-thiophen-2-yl)-acetic acid]
10 | 6.3 µM | 1.23 Ratio | 1.06 Ratio | 5.7 µM | 6 µM | O=C(O)Cc1ccc(-c2cccc(NC(=O)c3cccc(-c4c(O)cc(O)cc4O)c3)c2)s1 [Compound 64, (5-{3-[(2′,4′,6′-trihydroxy-biphenyl-3-carbonyl)-amino]-phenyl}-thiophen-2-yl)-acetic acid]
11 | 15.5 µM | 0.99 Ratio | 1.13 Ratio | 28.1 µM | 8.2 µM | O=C(Nc1ccccc1-c1cccs1)c1cccc(-c2c(O)cc(O)cc2O)c1 [Compound 65, 2′,4′,6′-Trihydroxy-biphenyl-3-carboxylic acid (2-thiophen-2-yl-phenyl)-amide]

— patent US7919532B2, “Hydroxylated aromatic compounds” (Revotar Biopharmaceuticals AG, priority 2005, dated 2011)
